# Reference: ChEMBL document CHEMBL5705884, “Breaching the DNA damage checkpoint via PF-00477736, a novel small-molecule inhibitor of checkpoint kinase 1” (Mol Cancer Ther, 2008)
# The source made the active and inactive calls. The rule behind the calls is not given here.
# Legend:
# [1] = biological target: Tyrosine-protein kinase Yes (Homo sapiens, UniProt P07947); experiment: Inhibition of Yes (unknown origin)
# [2] = biological target: Fibroblast growth factor receptor 3 (Homo sapiens, UniProt P22607); experiment: Inhibition of FGFR3 (unknown origin)
# Sequence of Fibroblast growth factor receptor 3 (P22607 whole entry): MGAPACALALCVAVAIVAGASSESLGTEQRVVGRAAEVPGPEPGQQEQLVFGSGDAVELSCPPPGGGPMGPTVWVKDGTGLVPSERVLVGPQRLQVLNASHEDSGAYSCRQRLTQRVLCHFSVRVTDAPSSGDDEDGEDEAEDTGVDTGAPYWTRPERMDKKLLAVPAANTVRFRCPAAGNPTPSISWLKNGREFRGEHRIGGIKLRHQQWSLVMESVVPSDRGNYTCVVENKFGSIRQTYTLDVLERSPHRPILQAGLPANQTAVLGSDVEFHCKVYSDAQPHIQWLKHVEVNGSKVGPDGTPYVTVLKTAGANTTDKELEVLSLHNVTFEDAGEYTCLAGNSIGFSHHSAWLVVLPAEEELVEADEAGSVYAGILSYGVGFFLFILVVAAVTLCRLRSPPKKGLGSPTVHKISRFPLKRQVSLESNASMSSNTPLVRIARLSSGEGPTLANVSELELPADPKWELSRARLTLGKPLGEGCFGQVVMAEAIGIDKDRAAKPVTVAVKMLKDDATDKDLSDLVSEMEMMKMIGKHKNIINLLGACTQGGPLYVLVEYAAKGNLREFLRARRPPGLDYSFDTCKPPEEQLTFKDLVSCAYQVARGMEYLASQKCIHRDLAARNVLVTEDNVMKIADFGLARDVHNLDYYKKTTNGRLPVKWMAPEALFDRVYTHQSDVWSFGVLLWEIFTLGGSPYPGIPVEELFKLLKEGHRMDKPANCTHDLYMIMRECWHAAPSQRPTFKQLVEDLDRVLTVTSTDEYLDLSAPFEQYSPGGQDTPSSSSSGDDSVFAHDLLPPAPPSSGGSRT
# [3] = biological target: T1, Receptor-type tyrosine-protein kinase FLT3 (Homo sapiens, UniProt P36888); experiment: Inhibition of FLT3 (unknown origin)
# T1 sequence (P36888 whole entry): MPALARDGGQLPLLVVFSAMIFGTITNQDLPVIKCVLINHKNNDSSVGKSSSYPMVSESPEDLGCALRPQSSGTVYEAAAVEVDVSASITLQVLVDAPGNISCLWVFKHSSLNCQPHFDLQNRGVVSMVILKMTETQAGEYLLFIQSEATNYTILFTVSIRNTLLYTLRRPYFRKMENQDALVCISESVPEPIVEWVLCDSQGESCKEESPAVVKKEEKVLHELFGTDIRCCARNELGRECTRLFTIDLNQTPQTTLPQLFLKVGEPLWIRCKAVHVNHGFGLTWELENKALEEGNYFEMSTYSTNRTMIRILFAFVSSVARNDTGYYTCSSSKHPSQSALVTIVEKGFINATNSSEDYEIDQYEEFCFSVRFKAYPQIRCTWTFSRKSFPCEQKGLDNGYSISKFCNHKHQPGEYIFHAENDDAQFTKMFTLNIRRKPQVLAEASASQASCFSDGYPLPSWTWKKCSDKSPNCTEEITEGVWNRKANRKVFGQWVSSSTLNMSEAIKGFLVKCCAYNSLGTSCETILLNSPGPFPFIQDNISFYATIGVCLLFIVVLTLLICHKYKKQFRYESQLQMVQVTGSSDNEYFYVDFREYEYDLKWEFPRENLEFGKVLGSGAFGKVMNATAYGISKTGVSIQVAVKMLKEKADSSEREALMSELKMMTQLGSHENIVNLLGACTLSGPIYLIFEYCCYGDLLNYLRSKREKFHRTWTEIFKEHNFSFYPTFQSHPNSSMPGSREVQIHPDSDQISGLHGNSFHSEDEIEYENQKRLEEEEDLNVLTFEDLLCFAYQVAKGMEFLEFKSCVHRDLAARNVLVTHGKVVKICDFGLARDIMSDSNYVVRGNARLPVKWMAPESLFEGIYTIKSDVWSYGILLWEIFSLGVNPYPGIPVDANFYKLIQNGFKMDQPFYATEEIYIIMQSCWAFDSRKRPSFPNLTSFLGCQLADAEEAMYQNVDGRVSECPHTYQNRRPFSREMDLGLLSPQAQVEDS
# [4] = Cmax in nu/nu mouse at 20 mg/kg, ip by LCMS analysis; assay type: ADME, organism-based; conditions: in vivo
# [5] = AUC (0 to infinity) in nu/nu mouse at 40 mg/kg, ip by LCMS analysis; assay type: ADME, organism-based; conditions: in vivo
# [6] = Terminal half life in Sprague-Dawley rat at 4 mg/kg, iv administered as bolus dose by LCMS analysis; assay type: ADME, organism-based; conditions: in vivo, read-out: beta t1/2 (converted)
# [7] = system: CA46; experiment: Inhibition of camptothecin induced DNA damage in mutated human CA46 cells assessed as increase in mitotic index by measuring histone H3 phosphorylation at S10 residue at 0.001 to 1 uM measured after 16 hrs presence of nocodazole by dot blot assay; assay type: functional, cell-based; conditions: CA46, 16 h
# [8] = system: HT-29; experiment: Inhibition of gemcitabine induced cell cycle arrest in human HT-29 cells assessed as increase in G0-G1 cell population pretreated with gemcitabine followed by compound treatment and measured after 10 to 48 hrs by flow cytometry analysis; assay type: functional, cell-based; conditions: time 10-48 hrs
# [9] = system: HT-29; experiment: Cytotoxicity in human HT-29 cells assessed as cell survival at 360 nM measured after 4 to 48 hrs by coulter counter method relative to control; assay type: functional; conditions: time 4-48 hrs, read-out: Activity
# [10] = system: COLO 205; experiment: Antiproliferative activity against human COLO 205 cells deficit of p53 expression assessed as inhibition of cell growth measured after 96 hrs by MTT assay; assay type: functional, cell-based; conditions: COLO 205, 96 h
# [11] = system: MDA-MB-231; experiment: Antiproliferative activity against human MDA-MB-231 cells deficit of p53 expression assessed as inhibition of cell growth measured after 96 hrs by MTT assay; assay type: functional, cell-based; conditions: MDA-MB-231, 96 h
# [12] = system: HT-29; experiment: Potentiation factor, ratio of IC50 for human HT-29 cells to IC50 for human HT-29 cells in presence of carboplatin; assay type: functional
# [13] = system: HT-29; experiment: Potentiation factor, ratio of IC50 for human HT-29 cells to IC50 for human HT-29 cells in presence of doxorubicin; assay type: functional
# [14] = system: COLO 205; experiment: Potentiation factor, ratio of IC50 for human COLO 205 cells to IC50 for human COLO 205 cells in presence of SN-38; assay type: functional
# [15] = system: PC-3; experiment: Potentiation factor, ratio of IC50 for human PC-3 cells to IC50 for human PC-3 cells in presence of doxorubicin; assay type: functional
# [16] = system: K562; experiment: Potentiation factor, ratio of IC50 for human K562 cells to IC50 for human K562 cells in presence of SN-38; assay type: functional
# [17] = system: K562; experiment: Potentiation factor, ratio of IC50 for human K562 cells to IC50 for human K562 cells in presence of carboplatin; assay type: functional
# [18] = system: K562; experiment: Potentiation factor, ratio of IC50 for human K562 cells to IC50 for human K562 cells in presence of doxorubicin; assay type: functional
# [19] = system: HT-29; experiment: Induction of DNA damage in gemcitabine induced human HT-29 cells assessed as increase in intensity of H2AX phosphorylation at 360 nM measured after 24 hrs by immunoblot analysis; assay type: functional, cell-based
# [20] = system: COLO 205; experiment: Antitumor activity against human COLO 205 cells xenografted in athymic nude mouse model assessed as tumor growth inhibition at 7.5 mg/kg, ip administered twice daily in presence of gemcitabine (Gemcitabine alone = 40%); assay type: functional; conditions: read-out: TGI
# [21] = system: COLO 205; experiment: Antitumor activity against human COLO 205 cells xenografted in athymic nude mouse model assessed as tumor growth inhibition at 30 mg/kg, ip administered once daily in presence of gemcitabine (Gemcitabine alone = 40%); assay type: functional; conditions: read-out: TGI
# [22] = system: COLO 205; experiment: Antitumor activity against human COLO 205 cells xenografted in athymic nude mouse model assessed as tumor growth inhibition at 40 mg/kg, ip administered twice daily in presence of gemcitabine (Gemcitabine alone= 58%); assay type: functional; conditions: read-out: TGI
# [23] = system: COLO 205; experiment: Antitumor activity against human COLO 205 cells xenografted in athymic nude mouse model assessed as tumor growth inhibition at 24 mg/kg, ip administered twice daily in presence of gemcitabine (Gemcitabine alone= 58%); assay type: functional; conditions: read-out: TGI
# [24] = system: COLO 205; experiment: Antitumor activity against human COLO 205 cells xenografted in athymic nude mouse model assessed as tumor growth inhibition at 12 mg/kg, ip administered once daily in presence of gemcitabine (Gemcitabine alone= 58%); assay type: functional; conditions: read-out: TGI
# [25] = system: COLO 205; experiment: Antitumor activity against human COLO 205 cells xenografted in athymic nude mouse model assessed as potentiated tumor growth inhibition at 15 mg/kg, ip administered once daily in presence of gemcitabine relative to control; assay type: functional; conditions: read-out: TGI
# [26] = system: COLO 205; experiment: Antitumor activity against human COLO 205 cells xenografted in athymic nude mouse model assessed as tumor growth delay by measuring test to control tumor ratio at 15 mg/kg, ip administered twice daily in presence of gemcitabine (Gemcitabine alone = 3%); assay type: functional
# Sequence of Tyrosine-protein kinase Yes (P07947 whole entry): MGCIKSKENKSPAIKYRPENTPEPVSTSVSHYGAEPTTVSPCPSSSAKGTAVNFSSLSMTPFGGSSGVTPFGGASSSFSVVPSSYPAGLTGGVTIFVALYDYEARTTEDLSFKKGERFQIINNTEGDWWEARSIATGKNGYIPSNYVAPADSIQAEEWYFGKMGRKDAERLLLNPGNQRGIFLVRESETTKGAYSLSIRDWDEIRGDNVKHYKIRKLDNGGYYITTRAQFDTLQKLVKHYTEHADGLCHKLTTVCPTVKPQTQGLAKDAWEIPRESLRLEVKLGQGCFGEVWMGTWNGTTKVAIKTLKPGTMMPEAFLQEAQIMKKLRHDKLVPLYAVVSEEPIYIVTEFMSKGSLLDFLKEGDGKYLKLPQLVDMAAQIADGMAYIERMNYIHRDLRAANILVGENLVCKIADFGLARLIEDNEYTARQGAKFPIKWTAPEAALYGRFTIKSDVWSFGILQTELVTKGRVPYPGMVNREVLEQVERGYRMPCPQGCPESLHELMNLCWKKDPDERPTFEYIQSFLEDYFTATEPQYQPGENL
structure (smiles),measurement,setting,value
Cn1cc(-c2[nH]c3cc(NC(=O)[C@H](N)C4CCCCC4)cc4c3c2C=NNC4=O)cn1,IC50,[1],29 nM
same,IC50,[2],47 nM
same,IC50,[3],51 nM
same,Cmax,[4],1290 ng/mL
same,AUC(0-inf),[5],25800 ng·h/mL
same,half-life,[6],2.9 h
same,EC50,[7],45 nM
same,inhibition,[8],Active
same,viability at 0.36 µM,[9],93%
same,IC50,[10],1300 nM
same,IC50,[11],1400 nM
same,PF50,[12],3
same,PF50,[13],2.2
same,PF50,[14],2.1
same,PF50,[15],1.5
same,PF50,[16],1.9
same,PF50,[17],1.9
same,PF50,[18],1.1
same,Activity,[19],Active
same,inhibition in vivo at 7.5 mg/kg,[20],70%
same,inhibition in vivo at 30 mg/kg,[21],64%
same,inhibition in vivo at 40 mg/kg,[22],90%
same,inhibition in vivo at 24 mg/kg,[23],81%
same,inhibition in vivo at 12 mg/kg,[24],68%
same,inhibition in vivo at 15 mg/kg,[25],45%
same,T/C,[26],11.25
